In US10828317B2, “Method of treating bacterial infections” (priority 2016, dated 2020):
Read-outs that look alike come from different tables or passages of the source.

Legend:
P. aeruginosa EN014 = test: MIC, WT; assay type: cell-based, Pseudomonas aeruginosa; conditions: Pseudomonas aeruginosa, read-out: MIC
P. mirabilis ST19 EN0445 = test: MIC; assay type: cell-based, Proteus mirabilis; conditions: Proteus mirabilis, read-out: MIC
K. pneumoniae EN0245 = test: MIC, colistinR; assay type: cell-based; conditions: Klebsiella pneumoniae, EN0245, combination didanosine+trimethoprim+uridine, Table 20; read-out: MIC
P. mirabilis EN0457 = test: MIC; assay type: cell-based, Proteus mirabilis; conditions: Proteus mirabilis, read-out: MIC
E. coli EN003 = test: microbe, parasite or virus in culture; assay type: cell-based, Escherichia coli; conditions: Escherichia coli, EN003, combination didanosine+trimethoprim+uridine, Table 10
P. aeruginosa EN0459 = test: MIC; assay type: cell-based, Pseudomonas aeruginosa; conditions: Pseudomonas aeruginosa, read-out: MIC
K. pneumoniae EN0463 = test: MIC; assay type: cell-based, Klebsiella pneumoniae; conditions: Klebsiella pneumoniae, read-out: MIC
E. coli EN0134 = test: MIC, AmpC (CMY-4); assay type: cell-based; conditions: Escherichia coli, EN0134, combination didanosine+trimethoprim+uridine, Table 20; read-out: MIC
S. flexneri APV00907 = test: MIC and antibiogram; assay type: cell-based; conditions: Shigella flexneri, Table 22A
From the text: Inhibition of Heliobacter is important in view of increasing resistance and its association to gastric cancer.

S. marescens EN0454 = test: MIC; assay type: cell-based, Serratia marescens; conditions: Serratia, read-out: MIC
E. coli EN002 = test: MIC, DtoIC; assay type: cell-based, Escherichia coli; conditions: Escherichia coli, read-out: MIC
S. epidermidis EN0456 = test: MIC; assay type: cell-based, Staphylococcus epidermidis; conditions: Staphylococcus epidermidis, read-out: MIC
E. coli EN012 = test: MIC, WT; assay type: cell-based, Escherichia coli; conditions: Escherichia coli, read-out: MIC
P. aeruginosa EN004 = test: MIC, WT (EN004 = EN0004); assay type: cell-based, Pseudomonas aeruginosa
K. pneumoniae EN006 = test: MIC, WT (EN006 = EN0006, ATCC 13883); assay type: cell-based, Klebsiella pneumoniae; conditions: Klebsiella pneumoniae, read-out: MIC
S. sonnei APV00908 = test: MIC and antibiogram; assay type: cell-based; conditions: Shigella sonnei, Table 22A
E. coli EN001 = test: MIC, WT (EN001 = EN0001, ATCC 25922); assay type: cell-based, Escherichia coli; conditions: Escherichia coli, read-out: MIC

Question: O=c1ccn([C@@H]2O[C@H](CO)[C@@H](O)[C@H]2O)c(=O)[nH]1 [Uridine, uridine] was tested. Which MIC (P. aeruginosa EN014; EN014, Combination 1 AZT+trimethoprim+uridine, Table 16) did it give?
Answer: The MIC was greater than 400 µg/mL.

Question: And the MIC (P. aeruginosa EN014; EN014, Combination 2 AZT+trimethoprim+uridine+thymidine, Table 16)?
Answer: The MIC was greater than 400 µg/mL.

Question: And the MIC (P. aeruginosa EN014; EN014, combination AZT+trimethoprim+uridine, Table 6)?
Answer: The MIC was greater than 1000 µg/mL.

Question: And the MIC (P. aeruginosa EN014; EN014, combination FdUrd+trimethoprim+uridine, Table 8)?
Answer: Its MIC is greater than 400 µg/mL.

Question: What about the MIC (P. aeruginosa EN014; EN014, combination didanosine+trimethoprim+uridine, Table 10) of the same molecule?
Answer: Its MIC is greater than 400 µg/mL.

Question: And the MIC (P. mirabilis ST19 EN0445; ST19EN0445, Combination 2 AZT+trimethoprim+uridine+thymidine, Table 16)?
Answer: The MIC was greater than 400 µg/mL.

Question: And the MIC (P. mirabilis ST19 EN0445; ST19EN0445, combination AZT+trimethoprim+uridine, Table 6)?
Answer: The MIC was greater than 1000 µg/mL.

Question: And the MIC (K. pneumoniae EN0245)?
Answer: The MIC was greater than 400 µg/mL.

Question: And the MIC (P. mirabilis EN0457; EN0457, Combination 1 AZT+trimethoprim+uridine, Table 16)?
Answer: Its MIC is 200 µg/mL.

Question: And the MIC (P. mirabilis EN0457; EN0457, Combination 2 AZT+trimethoprim+uridine+thymidine, Table 16)?
Answer: Its MIC is greater than 400 µg/mL.

Question: What about the MIC (P. mirabilis EN0457; EN0457, combination AZT+trimethoprim+uridine, Table 6) of the same molecule?
Answer: The MIC was 500 µg/mL.

Question: And the MIC (E. coli EN003)?
Answer: The MIC was 6 µg/mL.

Question: And the MIC (P. aeruginosa EN0459; EN0459, Combination 1 AZT+trimethoprim+uridine, Table 16)?
Answer: The MIC was greater than 400 µg/mL.

Question: And the MIC (P. aeruginosa EN0459; EN0459, Combination 2 AZT+trimethoprim+uridine+thymidine, Table 16)?
Answer: Its MIC is greater than 400 µg/mL.

Question: And the MIC (P. aeruginosa EN0459; EN0459, combination AZT+trimethoprim+uridine, Table 6)?
Answer: The MIC was greater than 1000 µg/mL.

Question: What about the MIC (P. aeruginosa EN0459; EN0459, combination FdUrd+trimethoprim+uridine, Table 8) of the same molecule?
Answer: Its MIC is greater than 400 µg/mL.

Question: And the MIC (P. aeruginosa EN0459; EN0459, combination didanosine+trimethoprim+uridine, Table 10)?
Answer: The MIC was greater than 400 µg/mL.

Question: What about the MIC (K. pneumoniae EN0463; EN0463, Combination 1 AZT+trimethoprim+uridine, Table 16) of the same molecule?
Answer: The MIC was 12.5 µg/mL.

Question: What about the MIC (K. pneumoniae EN0463; EN0463, combination AZT+trimethoprim+uridine, Table 6) of the same molecule?
Answer: The MIC was 16 µg/mL.

Question: And the MIC (E. coli EN0134)?
Answer: The MIC was greater than 400 µg/mL.

Question: And the MIC (S. flexneri APV00907; APV00907, combination AZT+trimethoprim+uridine)?
Answer: The MIC was 200 µg/mL.

Question: What about the MIC (S. flexneri APV00907; APV00907, combination FdUrd+trimethoprim+uridine) of the same molecule?
Answer: The MIC was greater than 400 µg/mL.

Question: What about the MIC (S. marescens EN0454; EN0454, Combination 1 AZT+trimethoprim+uridine, Table 16) of the same molecule?
Answer: Its MIC is greater than 400 µg/mL.

Question: And the MIC (S. marescens EN0454; EN0454, Combination 2 AZT+trimethoprim+uridine+thymidine, Table 16)?
Answer: The MIC was greater than 400 µg/mL.

Question: What about the MIC (S. marescens EN0454; EN0454, combination didanosine+trimethoprim+uridine, Table 10) of the same molecule?
Answer: The MIC was greater than 400 µg/mL.

Question: And the MIC (E. coli EN002; EN002, Combination 2 AZT+trimethoprim+uridine+thymidine, Table 16)?
Answer: Its MIC is 12.5 µg/mL.

Question: What about the MIC (E. coli EN002; EN002, combination AZT+trimethoprim+uridine, Table 6) of the same molecule?
Answer: The MIC was 4 µg/mL.

Question: And the MIC (E. coli EN002; EN002, combination FdUrd+trimethoprim+uridine, Table 8)?
Answer: The MIC was 6 µg/mL.

Question: And the MIC (E. coli EN002; EN002, combination didanosine+trimethoprim+uridine, Table 10)?
Answer: Its MIC is 6 µg/mL.

Question: What about the MIC (S. epidermidis EN0456; EN0456, Combination 1 AZT+trimethoprim+uridine, Table 16) of the same molecule?
Answer: Its MIC is 66.4 µg/mL.

Question: What about the MIC (S. epidermidis EN0456; EN0456, Combination 2 AZT+trimethoprim+uridine+thymidine, Table 16) of the same molecule?
Answer: Its MIC is 200 µg/mL.

Question: What about the MIC (S. epidermidis EN0456; EN0456, combination AZT+trimethoprim+uridine, Table 6) of the same molecule?
Answer: The MIC was 16 µg/mL.

Question: And the MIC (S. epidermidis EN0456; EN0456, combination FdUrd+trimethoprim+uridine, Table 8)?
Answer: Its MIC is less than 0.8 µg/mL.

Question: What about the MIC (S. epidermidis EN0456; EN0456, combination didanosine+trimethoprim+uridine, Table 10) of the same molecule?
Answer: The MIC was 6 µg/mL.

Question: What about the MIC (E. coli EN012; EN012, combination FdUrd+trimethoprim+uridine, Table 8) of the same molecule?
Answer: The MIC was 3 µg/mL.

Question: And the MIC (E. coli EN012; EN012, combination didanosine+trimethoprim+uridine, Table 10)?
Answer: The MIC was 6 µg/mL.

Question: What about the MIC (P. aeruginosa EN004; Pseudomonas aeruginosa, EN004, Combination 1 AZT+trimethoprim+uridine, Table 16, read-out: MIC) of the same molecule?
Answer: Its MIC is greater than 400 µg/mL.

Question: And the MIC (P. aeruginosa EN004; Pseudomonas aeruginosa, EN004, Combination 2 AZT+trimethoprim+uridine+thymidine, Table 16, read-out: MIC)?
Answer: Its MIC is greater than 400 µg/mL.

Question: What about the MIC (P. aeruginosa EN004; Pseudomonas aeruginosa, EN004, combination AZT+trimethoprim+uridine, Table 6, read-out: MIC) of the same molecule?
Answer: Its MIC is greater than 1000 µg/mL.

Question: And the MIC (P. aeruginosa EN004; Pseudomonas aeruginosa, EN004, combination FdUrd+trimethoprim+uridine, Table 8, read-out: MIC)?
Answer: The MIC was greater than 400 µg/mL.

Question: And the MIC (P. aeruginosa EN004; Pseudomonas aeruginosa, EN004, combination didanosine+trimethoprim+uridine, Table 10, read-out: MIC)?
Answer: The MIC was greater than 400 µg/mL.

Question: And the MIC (P. aeruginosa EN004; combination AZT+trimethoprim+uridine, Table 17B)?
Answer: Its MIC is greater than 400 µg/mL.

Question: And the MIC (P. aeruginosa EN004; combination FdUrd+trimethoprim+uridine, Table 19)?
Answer: The MIC was greater than 400 µg/mL.

Question: What about the MIC (P. aeruginosa EN004; combination didanosine+trimethoprim+uridine, Table 20) of the same molecule?
Answer: The MIC was greater than 400 µg/mL.

Question: What about the MIC (K. pneumoniae EN006; EN006, Combination 1 AZT+trimethoprim+uridine, Table 16) of the same molecule?
Answer: Its MIC is 12.5 µg/mL.

Question: What about the MIC (K. pneumoniae EN006; EN006, combination AZT+trimethoprim+uridine, Table 6) of the same molecule?
Answer: Its MIC is 16 µg/mL.

Question: And the MIC (S. sonnei APV00908; APV00908, combination AZT+trimethoprim+uridine)?
Answer: The MIC was 3 µg/mL.

Question: And the MIC (S. sonnei APV00908; APV00908, combination FdUrd+trimethoprim+uridine)?
Answer: Its MIC is greater than 400 µg/mL.

Question: What about the MIC (E. coli EN001; EN001, Combination 1 AZT+trimethoprim+uridine, Table 16) of the same molecule?
Answer: Its MIC is 6.4 µg/mL.

Question: And the MIC (E. coli EN001; EN001, combination AZT+trimethoprim+uridine, Table 6)?
Answer: Its MIC is 16 µg/mL.
